From the kinase profiling compilation of Christmann-Franck et al. (2016)

Key:
Assay in all cases: KINOMEscan competition binding
BRSK2 (human) = BRSK2 (human) (UniProt Q8IWQ3); conditions: compound 10.0 µM
CAMK2B (human) = CAMK2B (human) (UniProt Q13554); conditions: compound 10.0 µM
CAMK2D (human) = CAMK2D (human) (UniProt Q13557); conditions: compound 10.0 µM
CDK18 (human) = CDK18 (human) (UniProt Q07002); conditions: compound 10.0 µM
CPK1 (P.falciparum) = conditions: compound 10.0 µM
CSF1R (human) = CSF1R (human) (UniProt P07333); conditions: compound 10.0 µM
CSNK1A1 (human) = CSNK1A1 (human) (UniProt P48729); conditions: compound 10.0 µM
CSNK2A2 (human) = CSNK2A2 (human) (UniProt P19784); conditions: compound 10.0 µM
DCLK1 (human) = DCLK1 (human) (UniProt O15075)
[1] = tested on: EGFR (human), P00533 [747-751 del / S ins]; conditions: compound 10.0 µM
EIF2AK2 (human) = EIF2AK2 (human) (UniProt P19525); conditions: compound 10.0 µM
HIPK4 (human) = HIPK4 (human) (UniProt Q8NE63); conditions: compound 10.0 µM
[2] = tested on: KIT (human), P10721 [L576P]; conditions: compound 10.0 µM
LIMK1 (human) = LIMK1 (human) (UniProt P53667); conditions: compound 10.0 µM
MAP2K7 (human) = MAP2K7 (human) (UniProt O14733); conditions: compound 10.0 µM
MAP4K4 (human) = MAP4K4 (human) (UniProt O95819); conditions: compound 10.0 µM
MAPK12 (human) = MAPK12 (human) (UniProt P53778); conditions: compound 10.0 µM
MARK3 (human) = MARK3 (human) (UniProt P27448); conditions: compound 10.0 µM
MUSK (human) = MUSK (human) (UniProt O15146); conditions: compound 10.0 µM
MYLK (human) = MYLK (human) (UniProt Q15746); conditions: compound 10.0 µM
MYLK2 (human) = MYLK2 (human) (UniProt Q9H1R3); conditions: compound 10.0 µM
NLK (human) = NLK (human) (UniProt Q9UBE8); conditions: compound 10.0 µM
PIK3CB (human) = PIK3CB (human) (UniProt P42338); conditions: compound 10.0 µM
PKN2 (human) = PKN2 (human) (UniProt Q16513); conditions: compound 10.0 µM
PRKD2 (human) = PRKD2 (human) (UniProt Q9BZL6); conditions: compound 10.0 µM
PRKG1 (human) = PRKG1 (human) (UniProt Q13976); conditions: compound 10.0 µM
PRKG2 (human) = PRKG2 (human) (UniProt Q13237); conditions: compound 10.0 µM
RIPK1 (human) = RIPK1 (human) (UniProt Q13546); conditions: compound 10.0 µM
RPS6KA4 KD2 (human) = RPS6KA4 KD2 (human) (UniProt O75676); conditions: compound 10.0 µM
RPS6KA5 KD2 (human) = RPS6KA5 KD2 (human) (UniProt O75582); conditions: compound 10.0 µM
SBK1 (human) = SBK1 (human) (UniProt Q52WX2); conditions: compound 10.0 µM
STK10 (human) = STK10 (human) (UniProt O94804); conditions: compound 10.0 µM
STK17B (human) = STK17B (human) (UniProt O94768); conditions: compound 10.0 µM
STK3 (human) = STK3 (human) (UniProt Q13188); conditions: compound 10.0 µM
STK32A (human) = STK32A (human) (UniProt Q8WU08); conditions: compound 10.0 µM
TNIK (human) = TNIK (human) (UniProt Q9UKE5); conditions: compound 10.0 µM
TSSK1B (human) = TSSK1B (human) (UniProt Q9BXA7); conditions: compound 10.0 µM
[3] = target: TYK2 JH1 catalytic (human) (UniProt P29597); conditions: compound 10.0 µM
TYRO3 (human) = TYRO3 (human) (UniProt Q06418); conditions: compound 10.0 µM
ULK1 (human) = ULK1 (human) (UniProt O75385); conditions: compound 10.0 µM
YES1 (human) = YES1 (human) (UniProt P07947); conditions: compound 10.0 µM

Chain of DCLK1 (human) (O15075 whole entry, looked up): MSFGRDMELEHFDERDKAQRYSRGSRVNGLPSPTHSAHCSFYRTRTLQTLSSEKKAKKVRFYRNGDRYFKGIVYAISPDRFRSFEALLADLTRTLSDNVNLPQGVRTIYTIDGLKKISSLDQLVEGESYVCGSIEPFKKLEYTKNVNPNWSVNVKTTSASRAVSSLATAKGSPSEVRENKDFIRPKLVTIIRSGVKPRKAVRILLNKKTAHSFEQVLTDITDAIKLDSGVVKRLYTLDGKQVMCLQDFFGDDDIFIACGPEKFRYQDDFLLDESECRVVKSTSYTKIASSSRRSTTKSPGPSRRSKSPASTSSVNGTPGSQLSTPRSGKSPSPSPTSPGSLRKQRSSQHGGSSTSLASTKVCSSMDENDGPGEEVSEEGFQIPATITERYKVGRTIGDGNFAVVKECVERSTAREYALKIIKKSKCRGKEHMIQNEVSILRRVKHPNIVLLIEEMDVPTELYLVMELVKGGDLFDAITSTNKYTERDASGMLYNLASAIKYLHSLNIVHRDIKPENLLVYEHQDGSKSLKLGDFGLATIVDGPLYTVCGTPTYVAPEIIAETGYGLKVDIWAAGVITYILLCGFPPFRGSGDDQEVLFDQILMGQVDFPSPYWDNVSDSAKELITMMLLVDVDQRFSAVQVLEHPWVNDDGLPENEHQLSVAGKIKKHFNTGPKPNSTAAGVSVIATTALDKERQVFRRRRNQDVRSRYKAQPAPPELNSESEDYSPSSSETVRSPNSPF
Chain of NLK (human) (Q9UBE8 whole entry, looked up): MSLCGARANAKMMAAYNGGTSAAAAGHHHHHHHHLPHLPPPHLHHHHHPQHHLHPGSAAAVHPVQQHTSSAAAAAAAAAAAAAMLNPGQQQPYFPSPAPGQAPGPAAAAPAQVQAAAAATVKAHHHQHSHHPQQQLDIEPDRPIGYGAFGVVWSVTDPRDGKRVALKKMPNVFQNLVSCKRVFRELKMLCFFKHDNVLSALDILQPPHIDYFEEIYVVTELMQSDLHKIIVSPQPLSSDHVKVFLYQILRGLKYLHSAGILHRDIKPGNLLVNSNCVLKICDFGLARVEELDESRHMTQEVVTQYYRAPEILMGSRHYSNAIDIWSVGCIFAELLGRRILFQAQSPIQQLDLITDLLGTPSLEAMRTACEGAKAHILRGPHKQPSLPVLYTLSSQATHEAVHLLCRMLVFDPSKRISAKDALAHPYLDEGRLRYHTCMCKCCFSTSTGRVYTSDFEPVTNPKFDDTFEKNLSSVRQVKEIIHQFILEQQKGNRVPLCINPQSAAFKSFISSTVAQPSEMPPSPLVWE
Chain of MAP2K7 (human) (O14733 whole entry, looked up): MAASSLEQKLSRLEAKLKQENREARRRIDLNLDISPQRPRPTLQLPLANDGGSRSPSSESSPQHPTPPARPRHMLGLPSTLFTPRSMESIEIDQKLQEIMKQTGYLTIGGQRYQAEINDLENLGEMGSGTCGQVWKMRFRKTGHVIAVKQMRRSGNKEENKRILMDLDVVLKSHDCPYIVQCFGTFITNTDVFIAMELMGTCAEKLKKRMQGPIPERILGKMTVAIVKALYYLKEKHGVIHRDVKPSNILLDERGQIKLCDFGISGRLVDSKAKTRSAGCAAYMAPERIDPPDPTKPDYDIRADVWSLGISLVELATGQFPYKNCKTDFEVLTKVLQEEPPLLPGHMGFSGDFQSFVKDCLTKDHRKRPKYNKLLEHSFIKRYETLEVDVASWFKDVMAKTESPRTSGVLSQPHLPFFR
Chain of MYLK2 (human) (Q9H1R3 whole entry, looked up): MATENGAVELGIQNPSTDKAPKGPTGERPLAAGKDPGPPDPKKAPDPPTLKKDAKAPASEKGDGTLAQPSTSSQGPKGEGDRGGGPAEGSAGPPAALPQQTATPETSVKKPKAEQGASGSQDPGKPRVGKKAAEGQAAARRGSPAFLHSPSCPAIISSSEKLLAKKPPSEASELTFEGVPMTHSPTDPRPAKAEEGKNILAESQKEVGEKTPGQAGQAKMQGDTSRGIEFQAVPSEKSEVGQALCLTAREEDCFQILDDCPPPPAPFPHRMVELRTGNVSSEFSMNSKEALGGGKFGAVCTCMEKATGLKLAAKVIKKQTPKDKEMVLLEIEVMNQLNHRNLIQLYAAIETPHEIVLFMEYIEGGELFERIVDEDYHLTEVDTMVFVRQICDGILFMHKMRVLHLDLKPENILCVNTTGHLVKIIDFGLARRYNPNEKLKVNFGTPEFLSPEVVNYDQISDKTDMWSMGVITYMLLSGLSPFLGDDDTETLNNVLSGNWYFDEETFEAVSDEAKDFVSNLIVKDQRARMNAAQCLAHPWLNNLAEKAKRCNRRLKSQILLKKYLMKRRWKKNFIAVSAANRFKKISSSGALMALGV
Chain of HIPK4 (human) (Q8NE63 whole entry, looked up): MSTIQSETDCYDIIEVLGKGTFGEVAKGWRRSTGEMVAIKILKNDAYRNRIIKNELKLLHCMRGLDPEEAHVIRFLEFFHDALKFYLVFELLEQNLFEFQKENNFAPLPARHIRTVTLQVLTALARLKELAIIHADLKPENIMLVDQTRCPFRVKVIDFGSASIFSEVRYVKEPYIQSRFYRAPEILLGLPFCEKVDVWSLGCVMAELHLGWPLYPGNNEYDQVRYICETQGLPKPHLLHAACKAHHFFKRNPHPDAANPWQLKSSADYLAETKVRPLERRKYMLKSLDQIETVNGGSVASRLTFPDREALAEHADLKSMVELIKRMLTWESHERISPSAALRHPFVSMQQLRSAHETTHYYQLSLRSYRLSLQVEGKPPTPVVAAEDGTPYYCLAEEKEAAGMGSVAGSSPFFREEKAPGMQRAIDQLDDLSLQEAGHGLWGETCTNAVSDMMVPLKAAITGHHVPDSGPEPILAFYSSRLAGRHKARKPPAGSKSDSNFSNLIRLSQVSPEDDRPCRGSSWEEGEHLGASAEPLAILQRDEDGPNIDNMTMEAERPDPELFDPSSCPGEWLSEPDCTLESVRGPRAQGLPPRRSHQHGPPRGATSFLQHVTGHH
Chain of TSSK1B (human) (Q9BXA7 whole entry, looked up): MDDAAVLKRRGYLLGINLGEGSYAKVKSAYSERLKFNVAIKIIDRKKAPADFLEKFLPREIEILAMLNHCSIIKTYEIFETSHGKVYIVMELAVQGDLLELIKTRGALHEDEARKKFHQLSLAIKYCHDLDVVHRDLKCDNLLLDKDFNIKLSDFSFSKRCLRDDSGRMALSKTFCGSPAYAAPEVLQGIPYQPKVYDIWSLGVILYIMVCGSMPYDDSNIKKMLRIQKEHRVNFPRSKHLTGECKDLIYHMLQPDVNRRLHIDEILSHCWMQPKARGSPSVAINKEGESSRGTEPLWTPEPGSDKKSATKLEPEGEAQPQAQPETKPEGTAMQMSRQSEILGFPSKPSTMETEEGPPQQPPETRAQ
Chain of STK17B (human) (O94768 whole entry, looked up): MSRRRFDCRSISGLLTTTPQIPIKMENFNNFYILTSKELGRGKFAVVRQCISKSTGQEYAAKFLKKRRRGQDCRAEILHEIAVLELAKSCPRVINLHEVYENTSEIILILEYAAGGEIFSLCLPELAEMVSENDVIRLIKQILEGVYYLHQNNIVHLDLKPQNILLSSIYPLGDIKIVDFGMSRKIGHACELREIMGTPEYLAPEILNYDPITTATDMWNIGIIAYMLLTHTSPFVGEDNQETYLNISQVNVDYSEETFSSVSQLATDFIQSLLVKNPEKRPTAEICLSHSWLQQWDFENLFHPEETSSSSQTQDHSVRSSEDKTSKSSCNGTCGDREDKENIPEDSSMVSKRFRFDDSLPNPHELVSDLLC
Chain of CAMK2B (human) (Q13554 whole entry, looked up): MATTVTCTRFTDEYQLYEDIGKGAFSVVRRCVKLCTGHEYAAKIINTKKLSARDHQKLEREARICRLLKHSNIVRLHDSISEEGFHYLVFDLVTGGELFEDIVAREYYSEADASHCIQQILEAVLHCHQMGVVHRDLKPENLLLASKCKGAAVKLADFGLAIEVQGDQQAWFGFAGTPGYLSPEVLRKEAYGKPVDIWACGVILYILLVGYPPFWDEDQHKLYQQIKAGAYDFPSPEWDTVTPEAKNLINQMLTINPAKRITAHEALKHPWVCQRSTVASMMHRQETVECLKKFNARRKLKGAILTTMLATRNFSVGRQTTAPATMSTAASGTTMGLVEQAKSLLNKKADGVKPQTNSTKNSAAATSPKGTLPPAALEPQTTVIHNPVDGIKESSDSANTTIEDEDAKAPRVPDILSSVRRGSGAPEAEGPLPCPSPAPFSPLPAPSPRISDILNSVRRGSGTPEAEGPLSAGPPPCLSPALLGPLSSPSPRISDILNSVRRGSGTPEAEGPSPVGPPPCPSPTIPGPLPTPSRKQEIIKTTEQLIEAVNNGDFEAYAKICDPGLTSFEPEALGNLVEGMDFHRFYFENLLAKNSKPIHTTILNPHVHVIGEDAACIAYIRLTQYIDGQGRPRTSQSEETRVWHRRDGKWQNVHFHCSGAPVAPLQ
Chain of CSNK2A2 (human) (P19784 whole entry, looked up): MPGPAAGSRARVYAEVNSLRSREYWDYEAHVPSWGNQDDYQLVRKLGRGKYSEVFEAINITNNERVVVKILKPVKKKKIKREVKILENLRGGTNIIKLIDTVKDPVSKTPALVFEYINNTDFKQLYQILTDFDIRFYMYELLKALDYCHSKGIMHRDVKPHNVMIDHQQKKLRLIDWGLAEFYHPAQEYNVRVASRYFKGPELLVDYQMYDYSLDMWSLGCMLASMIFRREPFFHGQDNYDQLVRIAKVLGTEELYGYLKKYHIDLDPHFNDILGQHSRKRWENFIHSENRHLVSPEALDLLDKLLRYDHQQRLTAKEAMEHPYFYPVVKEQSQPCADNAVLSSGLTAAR
Chain of CSNK1A1 (human) (P48729 whole entry, looked up): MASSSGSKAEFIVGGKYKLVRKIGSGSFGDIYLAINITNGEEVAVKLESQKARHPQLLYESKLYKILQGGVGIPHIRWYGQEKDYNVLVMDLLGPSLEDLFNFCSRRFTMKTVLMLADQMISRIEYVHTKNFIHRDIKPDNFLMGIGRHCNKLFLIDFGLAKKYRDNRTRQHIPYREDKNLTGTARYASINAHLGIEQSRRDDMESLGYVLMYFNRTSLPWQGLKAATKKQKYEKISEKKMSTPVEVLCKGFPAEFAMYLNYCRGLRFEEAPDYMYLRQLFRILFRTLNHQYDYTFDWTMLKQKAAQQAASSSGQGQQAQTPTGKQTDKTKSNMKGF

COc1cc(C(=O)N2CCC(N3CCN(C)CC3)CC2)ccc1Nc1ncc2c(n1)N(C)c1ccccc1C(=O)N2C
kinase still bound, per cent of control (BRSK2 (human)): 64% | kinase still bound, per cent of control (CAMK2B (human)): 62% | kinase still bound, per cent of control (CAMK2D (human)): 28% | residual activity (CDK18 (human)): 100% | kinase still bound, per cent of control (CPK1 (P.falciparum)): 100% | kinase still bound, per cent of control (CSF1R (human)): 98% | kinase still bound, per cent of control (CSNK1A1 (human)): 100% | kinase still bound, per cent of control (CSNK2A2 (human)): 93% | Kd (DCLK1 (human)): 5 nM | kinase still bound, per cent of control (DCLK1 (human); compound 10.0 µM): 4.2% | kinase still bound, per cent of control [1]: 100% | kinase still bound, per cent of control (EIF2AK2 (human)): 84% | kinase still bound, per cent of control (HIPK4 (human)): 100% | kinase still bound, per cent of control [2]: 100% | kinase still bound, per cent of control (LIMK1 (human)): 95% | kinase still bound, per cent of control (MAP2K7 (human)): 100% | kinase still bound, per cent of control (MAP4K4 (human)): 85% | kinase still bound, per cent of control (MAPK12 (human)): 76% | kinase still bound, per cent of control (MARK3 (human)): 98% | kinase still bound, per cent of control (MUSK (human)): 99% | residual activity (MYLK (human)): 8.7% | kinase still bound, per cent of control (MYLK2 (human)): 98% | kinase still bound, per cent of control (NLK (human)): 50% | kinase still bound, per cent of control (PIK3CB (human)): 96% | kinase still bound, per cent of control (PKN2 (human)): 95% | kinase still bound, per cent of control (PRKD2 (human)): 59% | kinase still bound, per cent of control (PRKG1 (human)): 98% | kinase still bound, per cent of control (PRKG2 (human)): 74% | kinase still bound, per cent of control (RIPK1 (human)): 99% | kinase still bound, per cent of control (RPS6KA4 KD2 (human)): 46% | kinase still bound, per cent of control (RPS6KA5 KD2 (human)): 92% | kinase still bound, per cent of control (SBK1 (human)): 100% | kinase still bound, per cent of control (STK10 (human)): 100% | kinase still bound, per cent of control (STK17B (human)): 93% | kinase still bound, per cent of control (STK3 (human)): 71% | kinase still bound, per cent of control (STK32A (human)): 100% | kinase still bound, per cent of control (TNIK (human)): 100% | kinase still bound, per cent of control (TSSK1B (human)): 60% | kinase still bound, per cent of control [3]: 52% | kinase still bound, per cent of control (TYRO3 (human)): 100% | kinase still bound, per cent of control (ULK1 (human)): 80% | kinase still bound, per cent of control (YES1 (human)): 100%
